Experimental findings from US6528093B1, “Sustained-release preparation” (Takeda Chemical Industries, Ltd., priority 1992, dated 2003) are described below.

This data set is described as follows: Dissolution of peptide acetate in a dichloromethane solution of lactic acid-glycolic acid copolymer. Type of data set: physicochemical. Particulars: 8.0 g dichloromethane.

SMILES strings stand for the structures.

Take `CCNC(=O)[C@@H]1CCCN1C(=O)[C@H](CCCNC(=N)N)NC(=O)[C@H](CC(C)C)NC(=O)[C@@H](CC(C)C)NC(=O)[C@H](Cc1ccc(O)cc1)NC(=O)[C@H](CO)NC(=O)[C@H](Cc1c[nH]c2ccccc12)NC(=O)[C@H](Cc1c[nH]cn1)NC(=O)[C@@H]1CCC(=O)N1` [Leuprorelin acetate]: the “dissolution in copolymer/dichloromethane solution” value runs as follows: (400 mg in 3.6 g lactic acid/glycolic acid=75/25 copolymer of Example 12 (GPC Mw 10,000, end-group Mn 4,300)) “clear homogeneous solution”; (400 mg in 3.6 g lactic acid/glycolic acid=75/25 copolymer, GPC Mw 18,000, end-group Mn 30,000 (RG752-15057)) “could not be successfully dissolved”.
